Assay results from patent publication US8765755B2, “N-containing heterocyclic compounds” (YM Biosciences Australia Pty Ltd, priority 2007, dated 2014).

Legend:
human JAK2 = target: T1, human JAK2 (Homo sapiens, UniProt O60674); test: JAK2 kinase enzyme assay (Alphascreen); assay type: biochemical; conditions: 80 or 625 um ATP
T1 construct: The kinase domain of human JAK2 was amplified; GST (N); made in house; host or cells: Sf9 (Spodoptera frugiperda) insect cells, baculovirus
Method: (§1) For screening purposes, compounds (in 100% DMSO) were warmed at 37 degrees for at least 20 minutes before use. A […] stock was initially made in assay buffer, where the final concentration of DMSO was 0.3%. The stocks were then diluted in 384 well Optiplates (Packard) where the final concentration of the compound was 5 μM.
The kinase domain of human JAK2 was amplified from U937mRNA using the polymerase chain reaction with the following primers: […]
The JAK2 PCR products were cloned into the pDest20 destination vector (Gibco). The JAK2 plasmid was then transformed into competent DH10Bac cells (Gibco), and the recombinant baculovirus was prepared via Sf9 insect cell transfection.
(§2) Baculovirus preparations from each of the JAK family members were infected into one litre of Sf9 (Spodoptera frugiperda) cells (Invitrogen) grown in SF900II serum free medium (Invitrogen) to a cell density of approximately 2×10^6 cells/ml. Cells were infected with virus at a cell culture to virus stock ratio of 20:1. Cells were harvested and lysed 48 hours post infection. The GST-tagged JAK kinase domains were purified by affinity chromatography on a GSH agarose column (Scientifix).
(§3) Kinase assays were performed in 384 well Optiplates (Packard) using an Alphascreen Protein Tyrosine KinaseP100 detection kit The compounds were pre-incubated with affinity purified PTK domain in the presence of phosphotyrosine assay buffer (10 mM HEPES, pH 7.5, 100 mM MgCl2, 25 mM NaCl, 200 mM sodium vanadate and 0.1% Tween 20) for 20 minutes. The compounds were then incubated with substrate in the presence of either 80 or 625 um ATP for 60 or 90 minutes. The substrate used was either susbtrate-1 with the sequence biotin-EGPWLEEEEEAYGWMDF-NH2 [SEQ. ID. NO. 13] (final concentration 111 μM) or susbtrate-2 substrate with the sequence biotin-EQEDEPEGDYFEWLEPE (final concentration 133 μM). Alphascreen phosphotyrosine acceptor beads followed by streptavidin donor beads at a concentration of 1/100 in stop buffer were added to each well under subdued light and incubated for 2-3 hours. The Alphascreen plates were read on a Packard Fusion Alpha instrument.

BAF3wt = test: Cellular screening, BaF3 wild-type cells (Alamar Blue); assay type: cell-based; conditions: Mus musculus, 40 hr incubation
Method: (§4) For screening purposes, compounds were diluted in 96 well plates at a concentration of 20 μM. Plates were warmed at 37° C. for 30 minutes before the assay was performed.
(§5) The growth factor dependant myelomonocytic cell line BaF3 bearing the pTET-off plasmid (Clontech) was transfected with either pTELJAK2 or pTELJAK3, and the transfected cells were selected for growth-factor independent cell growth. The BaF3 wild-type cells were cultured in DMEM containing 10% FCS, 10% WEHI 3B conditioned medium. The BaF3 TELJAK cells ([…]) were cultured in DMEM 10% Tet-System Approved FBS (without WEHI 3B conditioned medium).
(§6) Cell suspensions were prepared by harvesting cells from culture. (the cells used in this test were in late log phase growth with high viability.) Cells were diluted in the appropriate growth medium, as described above, to 1.1× final concentration (from 50,000 cell/mL to 200,000 cell/mL, depending on cell line).
(§7) Compounds to be tested were added (10 μL, 10× final concentration) to a flat bottomed 96-well plate. The cellular suspension (90 μL per well) was then added, and the plate incubated for 40 hr at 37° C., 5% CO2. Alamar Blue 10 μL per well was added and the plates returned to the incubator for a further 4-6 hours. The plates were then read at 544 nm.

BafT_J2 = test: Cellular screening, BaF3 TEL:JAK2 cells (Alamar Blue); assay type: cell-based; conditions: Mus musculus, 40 hr incubation
Method: as §4
(§8) The coding region encompassing nucleotides 1-487 of TEL was amplified by PCR using the oligonucleotides 5TEL (5′-GGAGGATCCTGATCTCTCTCGCTGTGAGAC-3′) [SEQ ID NO 14] and 3TEL (5′-AGGC GTCGACTTCTTCTTCATGGTTCTG-3′) [SEQ ID NO 15] and U937 mRNA as a template. A BamHI restriction site was incorporated into the 5TEL primer, and a Sal I restriction site was incorporated into the 3TEL primer. The regions encompassing the kinase domain of JAK2 (nucleotides 2994-3914; JAK2F 5′-ACGC GTCGACGGTGCCTTTGAAGACCGGGAT-3′ [SEQ ID NO 16]; JAK2R 5′-ATAGTTTAGCGGCCGCTCAGAATGAAGGTCATTT-3′) [SEQ ID NO 17] and JAK3 (nucleotides 2520-3469; JAK3F 5′-GAAGTCGACTATGCCTGCCAAGACCCCACGATCTT-3′) [SEQ ID NO 18] were generated by PCR using Taq DNA polymerase (Gibco/BRL) and U937 mRNA as a template. A Sal I restriction site was incorporated into the forward primer of JAK2 and JAK3, a Not I site was incorporated into the JAK2 reverse primer and a Xba I site was added to the reverse primer of JAK3.
A TEL/Jak2 fusion was generated by digestion of the TELPCR product with BamH I/Sal I restriction enzymes, digestion of the JAK2 PCR product with Sal I/Not I restriction enzymes, followed by ligation and subcloning of the ligation product into the mammalian expression Vector pTRE 2 (Clontech), which was prepared by digestion with BamH I-Not I restriction enzymes, to give the TEL/Jak2 fusion plasmid pTELJAK2.
as §5, §6, §7

human JAK3 = target: T2, human JAK3 (Homo sapiens, UniProt P52333); test: JAK3 kinase enzyme assay (Alphascreen); assay type: biochemical; conditions: 80 or 625 um ATP
T2 construct: The kinase domain of human JAK3 was amplified; GST (N); made in house; host or cells: Sf9 (Spodoptera frugiperda) insect cells, baculovirus
Method: as §1
The kinase domain of human JAK3 was amplified from U937mRNA using the polymerase chain reaction with the following primers: […]
The JAK3 PCR products were cloned into the pDest20 destination expression vector (Gibco). The JAK3 plasmid was then transformed into competent DH10Bac cells (Gibco), and the recombinant baculovirus was prepared via Sf9 insect cell transfection.
as §2, §3

BafT_J3 = test: Cellular screening, BaF3 TEL:JAK3 cells (Alamar Blue); assay type: cell-based; conditions: Mus musculus, 40 hr incubation
Method: as §4, §8
The TEL/Jak3 fusion was prepared by ligation of the JAK3 Sal I/Not I cleaved kinase domain PCR product with the BamH I/Sal I restriction digested TEL product, followed by ligation of the ligation product into the BamH I/Not I digested pTRE2, to give the TEL/Jak3 fusion plasmid pTELJAK3.
as §5, §6, §7

CTLL2 = test: Cellular screening, CTLL2 cells (Alamar Blue); assay type: cell-based; conditions: Mus musculus, CTLL-2, 40 hr incubation
Method: as §4, §6, §7

T1 sequence (O60674 849-1124 limits assumed): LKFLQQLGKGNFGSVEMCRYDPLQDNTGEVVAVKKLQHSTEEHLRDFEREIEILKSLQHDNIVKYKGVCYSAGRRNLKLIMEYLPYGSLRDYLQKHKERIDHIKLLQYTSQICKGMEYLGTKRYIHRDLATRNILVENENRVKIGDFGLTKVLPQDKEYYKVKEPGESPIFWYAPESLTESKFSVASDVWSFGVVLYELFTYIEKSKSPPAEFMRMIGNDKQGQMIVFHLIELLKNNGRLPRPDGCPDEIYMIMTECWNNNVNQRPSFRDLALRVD
T2 sequence (P52333 822-1111 limits assumed): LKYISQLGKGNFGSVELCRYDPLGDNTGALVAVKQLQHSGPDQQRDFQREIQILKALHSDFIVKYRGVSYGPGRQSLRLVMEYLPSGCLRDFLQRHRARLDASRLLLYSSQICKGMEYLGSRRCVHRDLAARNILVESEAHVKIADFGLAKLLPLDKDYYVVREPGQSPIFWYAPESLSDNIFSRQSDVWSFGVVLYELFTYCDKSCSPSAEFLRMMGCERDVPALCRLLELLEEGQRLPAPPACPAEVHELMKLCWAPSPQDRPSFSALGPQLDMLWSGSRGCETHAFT

Structure (SMILES) | IC50 (human JAK2) [µM] | IC50 (BAF3wt) [µM] | IC50 (BafT_J2) [µM] | IC50 (human JAK3) [µM] | IC50 (BafT_J3) [µM] | IC50 (CTLL2) [µM]
COc1cc(Nc2ncc3scc(-c4ccc(NCCN5CCOCC5)nc4)c3n2)cc(OC)c1OC [Compound 94, 7-(6-(2-morpholinoethylamino)pyridin-3-yl)-N-(3,4,5-trimethoxyphenyl)thieno[3,2-d]pyrimidin-2-amine] | < 0.1 | < 1 | < 1 | < 0.5 | < 1 | < 1
NS(=O)(=O)c1cccc(-c2csc3cnc(Nc4ccc(OCCN5CCCC5)cc4)nc23)c1 [Compound 73, 3-(2-(4-(2-(pyrrolidin-1-yl)ethoxy)phenylamino)thieno[3,2-d]pyrimidin-7-yl)benzenesulfonamide] | < 0.1 | < 1 | < 1 | < 0.1 | < 1 | < 5
COc1ccc(-c2csc3cnc(Nc4ccc(OC)c(OC)c4)nc23)c(OC)n1 [Compound 55, N-(3,4-dimethoxyphenyl)-7-(2,6-dimethoxypyridin-3-yl)thieno[3,2-d]pyrimidin-2-amine] | < 0.1 | < 5 | < 5 | < 0.1 | < 5 | < 5
NCc1ccc(-c2csc3cnc(Nc4ccc(CN5CCOCC5)cc4)nc23)cc1 [Compound 97, 7-(4-(aminomethyl)phenyl)-N-(4-(morpholinomethyl)phenyl)thieno[3,2-d]pyrimidin-2-amine] | < 0.1 | < 1 | < 1 | < 0.1 | < 1 | < 1
CC(C)(C)OC(=O)N1CC=C(c2csc3cnc(Nc4ccc(CN5CCOCC5)cc4)nc23)CC1 [Compound 79, tert-butyl 4-(2-(4-(morpholinomethyl)phenylamino)thieno[3,2-d]pyrimidin-7-yl)-5,6-dihydropyridine-1(2H)-carboxylate] | < 0.1 | < 5 | < 1 | < 0.1 | < 5 | < 1
CC(C)c1ccccc1-c1csc2cnc(Nc3ccc(N4CCOCC4)cc3)nc12 [Compound 37, 7-(2-isopropylphenyl)-N-(4-morpholinophenyl)thieno[3,2-d]pyrimidin-2-amine] | < 0.1 | < 1 | < 1 | < 0.1 | < 1 | < 1
CC(=O)Nc1cccc(-c2csc3cnc(Nc4ccc(CN5CCOCC5)cc4)nc23)c1 [Compound 81, N-(3-(2-(4-(morpholinomethyl)phenylamino)thieno[3,2-d]pyrimidin-7-yl)phenyl)acetamide] | < 0.1 | < 1 | < 1 | < 0.5 | < 1 | < 1
N#CCNC(=O)c1cccc(-c2csc3cnc(Nc4ccc(N5CCOCC5)cc4)nc23)c1 [Compound 63, N-(cyanomethyl)-3-(2-(4-morpholinophenylamino)thieno[3,2-d]pyrimidin-7-yl)benzamide] | < 0.1 | < 1 | < 1 | < 0.1 | < 1 | < 1
CC(C)c1ccccc1-c1csc2cnc(Nc3ccc(OCCN4CCCC4)cc3)nc12 [Compound 96] | < 0.1 | < 1 | < 1 | < 0.1 | < 1 | < 1
C=CC(=O)Nc1ccc(-c2csc3cnc(Nc4ccc(N5CCOCC5)cc4)nc23)cc1 [Compound 3, N-(4-(2-(4-morpholinophenylamino)thieno[3,2-d]pyrimidin-7-yl)phenyl)acrylamide] | < 0.1 | < 5 | < 5 | < 0.1 | < 1 | < 1
CCN1CCN(Cc2ccc(Nc3ncc4scc(-c5cccc(S(=O)(=O)NC(C)(C)C)c5)c4n3)cc2)CC1 [Compound 68, N-tert-butyl-3-(2-(4-((4-ethylpiperazin-1-yl)methyl)phenylamino)thieno[3,2-d]pyrimidin-7-yl)benzenesulfonamide] | < 0.1 | < 1 | < 1 | < 0.5 | < 1 | < 5
OCc1ccc(-c2csc3cnc(Nc4ccc(N5CCOCC5)cc4)nc23)cc1 [Compound 90, (4-(2-(4-morpholinophenylamino)thieno[3,2-d]pyrimidin-7-yl)phenyl)methanol] | < 0.1 | < 1 | < 1 | < 0.1 | < 1 | < 1
CN1CCN(c2ccc(-c3csc4cnc(Nc5ccc(CN6CCOCC6)cc5)nc34)cc2)CC1 [Compound 84, 7-(4-(4-methylpiperazin-1-yl)phenyl)-N-(4-(morpholinomethyl)phenyl)thieno[3,2-d]pyrimidin-2-amine] | < 0.1 | < 1 | < 1 | < 0.5 | < 1 | < 1
Nc1ccc(-c2csc3cnc(Nc4ccc(N5CCOCC5)cc4)nc23)cc1[N+](=O)[O-] [Compound 44, 7-(4-amino-3-nitrophenyl)-N-(4-morpholinophenyl)thieno[3,2-d]pyrimidin-2-amine] | < 0.1 | < 5 | < 1 | < 0.1 | < 5 | < 5
CC(C)(C)OC(=O)NCc1cccc(-c2csc3cnc(Nc4ccc(CN5CCOCC5)cc4)nc23)c1 [Compound 92] | < 0.1 | < 1 | < 5 | < 0.5 | < 5 | < 1
